Results from BindingDB's records for doi:10.1002/1439-7633(20010601)2 (Universit&Eacute, 2001).

Each molecule was assayed against Acetylcholinesterase (Torpedo marmorata, UniProt P07692) (assay: Enzyme Assay). Settings: pH 4; 25 °C.
Protocol: The inhibitory activity of the equilibrated mixtures was determined. The activity of AChE was monitored by following the linear change in absorbance at 412 nm over 30s at 25C.

Sequence of Acetylcholinesterase (P07692 whole entry): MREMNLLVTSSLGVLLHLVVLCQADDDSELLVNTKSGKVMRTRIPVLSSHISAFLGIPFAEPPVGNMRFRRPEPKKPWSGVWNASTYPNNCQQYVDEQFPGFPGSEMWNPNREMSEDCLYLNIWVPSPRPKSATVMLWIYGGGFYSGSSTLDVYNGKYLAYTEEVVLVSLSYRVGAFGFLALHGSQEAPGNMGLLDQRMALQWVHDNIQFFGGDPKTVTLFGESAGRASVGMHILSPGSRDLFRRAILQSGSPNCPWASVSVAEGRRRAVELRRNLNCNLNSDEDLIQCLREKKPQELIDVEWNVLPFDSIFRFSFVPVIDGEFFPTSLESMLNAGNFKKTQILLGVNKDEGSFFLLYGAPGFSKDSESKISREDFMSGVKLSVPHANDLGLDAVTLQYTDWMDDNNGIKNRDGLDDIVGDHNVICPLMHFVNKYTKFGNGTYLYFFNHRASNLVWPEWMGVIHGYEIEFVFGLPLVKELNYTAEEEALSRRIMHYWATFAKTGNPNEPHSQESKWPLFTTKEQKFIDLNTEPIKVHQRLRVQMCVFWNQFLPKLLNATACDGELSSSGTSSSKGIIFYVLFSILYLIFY

Structure (SMILES)	IC50 [nM]
c1cc[n+](CCCCCCCCCC[n+]2ccccc2)cc1 [1,10-di(1-pyridiniumyl)decane; diiodide]	25.8
c1cc[n+](CCCCCCCCCCCC[n+]2ccccc2)cc1 [1,12-Bis(pyridinium)dodecane]	16
C[N+](C)(C)CCCCCCCCCCCC[N+](C)(C)C [N1,N1,N1,N12,N12,N12-hexamethyldodecane-1,12-diaminium bromide]	93.2
O=C(C[n+]1ccccc1)N/N=C/c1ccc(/C=N/NC(=O)C[n+]2ccccc2)cc1 [Terephthalaldehyde, 4-I-4]	2.3
